This is an account of results in patent US20180311357A1, “EXTERNAL PREPARATION AND METHOD FOR PRODUCING SAME” (SEKISUI CHEMICAL CO., LTD., priority 2015, published 2018).

For the series the following is noted: pH 7. On the procedure: In the present invention, the octanol/water partition coefficient is obtained as follows. After the chemical is added into a flask containing octanol and an aqueous buffer at pH 7, the mixture is shaken. Based on the chemical concentration in each phase, the octanol/water partition coefficient is calculated by the following equation. Octanol/water partition coefficient=Log 10(concentration in octanol phase/concentration in aqueous phase)

Each structure is given as a SMILES string.

Compound `O.O.O.O.O.O=P([O-])(O)C(O)(Cc1cccnc1)P(=O)(O)O.O=P([O-])(O)C(O)(Cc1cccnc1)P(=O)(O)O.[Na+].[Na+]` [hemipenta hydrate risedronate monosodium] registered an octanol/water partition coefficient of −5.0.
